By IC50 is commonly meant the midpoint of a concentration-inhibition curve.

Drawing on patent US8604042B2, “Bi-aryl meta-pyrimidine inhibitors of kinases” (TargeGen, Inc., priority 2005, dated 2013), this text covers IC50 for 25 compounds.

For this assay, the target named is T1, recombinant JAK2 (Homo sapiens, UniProt O60674).
T1 construct: purchased Upstate Cell Signaling Solutions
Description: IC50 value determinations for Jak2 kinase, luminescence-based kinase assay (Kinase-Glo). Type of assay: biochemical. Conditions: Table 1.

Where a name gives a salt, the structure may show the parent alone.

T1 sequence (O60674 808-1132 limits assumed): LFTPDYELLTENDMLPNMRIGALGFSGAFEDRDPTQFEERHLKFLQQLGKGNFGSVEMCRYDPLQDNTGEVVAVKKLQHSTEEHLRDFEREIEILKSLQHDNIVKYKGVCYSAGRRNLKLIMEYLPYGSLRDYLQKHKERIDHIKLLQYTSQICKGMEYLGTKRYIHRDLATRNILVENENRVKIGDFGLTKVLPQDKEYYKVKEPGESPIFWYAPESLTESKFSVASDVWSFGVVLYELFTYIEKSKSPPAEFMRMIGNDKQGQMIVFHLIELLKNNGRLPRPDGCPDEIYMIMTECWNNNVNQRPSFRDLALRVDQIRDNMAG
Description: The IC50 values for compounds were determined using a luminescence-based kinase assay with recombinant JAK2 obtained from Upstate Cell Signaling Solutions. In white, flat bottom, 96-well plates (Nunc) parallel assays were run at room temperature at a final volume of 50 μL.
Two control reactions were also ran: one reaction containing no compound and the second containing neither inhibitor nor peptide substrate. IC50 values were derived from experimental data using the non-linear curve fitting capabilities of Prism (Version 4; GraphPad Software).

Take `Cc1cnc(Nc2ccc(-n3cccn3)cc2)nc1Nc1cccc(S(=O)(=O)NC(C)(C)C)c1` [N-tert-Butyl-3-[5-methyl-2-(4-pyrazol-1-yl-phenylamino)-pyrimidin-4-ylamino]-benzenesulfonamide]: the IC50 is 19 nM.

In the case of `Cc1cnc(Nc2ccc(Cn3cccn3)cc2)nc1Nc1cccc(S(=O)(=O)NC(C)(C)C)c1` [N-tert-Butyl-3-[5-methyl-2-(4-pyrazol-1-ylmethyl-phenylamino)-pyrimidin-4-ylamino]-benzenesulfonamide], the IC50 stood at 18.6 nM.

`Cc1cnc(Nc2ccc(Cc3ccncc3)cc2)nc1Nc1cccc(S(=O)(=O)NC(C)(C)C)c1` [N-tert-Butyl-3-[5-methyl-2-(4-pyridin-4-ylmethyl-phenylamino)-pyrimidin-4-ylamino]-benzenesulfonamide]: the IC50 was found to be 80.7 nM.

Turning to `Cc1cnc(Nc2ccc(N3CCNCC3)nc2)nc1Nc1cccc(S(=O)(=O)NC(C)(C)C)c1` [N-tert-Butyl-3-[5-methyl-2-(6-piperazin-1-yl-pyridin-3-ylamino)-pyrimidin-4-ylamino]-benzenesulfonamide], the IC50 was found to be 10 nM.

As for `Cc1cnc(Nc2ccc(OCCO)cc2)nc1Nc1cccc(S(=O)(=O)NC(C)(C)C)c1` [N-tert-Butyl-3-{2-[4-(2-hydroxy-ethoxy)-phenylamino]-5-methyl-pyrimidin-4-ylamino)-benzenesulfonamide], the IC50 was 20.3 nM.

As for `Cc1cnc(Nc2cccc(-c3nnn[nH]3)c2)nc1Nc1cccc(S(=O)(=O)NC(C)(C)C)c1` [N-tert-Butyl-3-{5-methyl-2-[3-(1H-tetrazol-5-yl)-phenylamino]-pyrimidin-4-ylamino}-benzenesulfonamide], the IC50 came to 55.9 nM.

Consider `Cc1cnc(Nc2cccc(S(=O)(=O)N3CCCCC3)c2)nc1Nc1cccc(S(=O)(=O)NC(C)(C)C)c1` [N-tert-Butyl-3-{5-methyl-2-[3-(piperidine-1-sulfonyl)-phenylamino]-pyrimidin-4-ylamino}-benzenesulfonamide], for which the IC50 came to 316 nM.

On to `Cc1cnc(Nc2ccc(C(C)N3CCOCC3)cc2)nc1Nc1cccc(S(=O)(=O)NC(C)(C)C)c1` (stereo not shown) [N-tert-Butyl-3-{5-methyl-2-[4-(1-morpholin-4-yl-ethyl)-phenylamino]-pyrimidin-4-ylamino}-benzenesulfonamide], for which the IC50 was found to be 29.7 nM.

On to `Cc1cnc(Nc2ccc(-c3nnn[nH]3)cc2)nc1Nc1cccc(S(=O)(=O)NC(C)(C)C)c1` [N-tert-Butyl-3-{5-methyl-2-[4-(1H-tetrazol-5-yl)-phenylamino]-pyrimidin-4-ylamino}-benzenesulfonamide], for which the IC50 was determined as 96.7 nM.

On to `Cc1cnc(Nc2ccc(-n3ccnc3C)cc2)nc1Nc1cccc(S(=O)(=O)NC(C)(C)C)c1` [N-tert-Butyl-3-{5-methyl-2-[4-(2-methyl-imidazol-1-yl)-phenylamino]-pyrimidin-4-ylamino}-benzenesulfonamide], for which the IC50 stood at 34.3 nM.

As for `Cc1cnc(Nc2ccc(Cn3ccnc3C)cc2)nc1Nc1cccc(S(=O)(=O)NC(C)(C)C)c1` [N-tert-Butyl-3-{5-methyl-2-[4-(2-methyl-imidazol-1-ylmethyl)-phenylamino]-pyrimidin-4-ylamino}-benzenesulfonamide], the IC50 was determined as 21.9 nM.

In the case of `Cc1cn(-c2ccc(Nc3ncc(C)c(Nc4cccc(S(=O)(=O)NC(C)(C)C)c4)n3)cc2)cn1` [N-tert-Butyl-3-{5-methyl-2-[4-(4-methyl-imidazol-1-yl)-phenylamino]-pyrimidin-4-ylamino}-benzenesulfonamide], the half-inhibitory concentration (IC50) is 41.7 nM.

Regarding `Cc1cnc(Nc2ccc(N3CCN(C)CC3)cc2)nc1Nc1cccc(C(=O)NC(C)(C)C)c1` [N-tert-Butyl-3-{5-methyl-2-[4-(4-methyl-piperazin-1-yl)-phenylamino]-pyrimidin-4-ylamino}-benzamide], the IC50 came to 890 nM.

`Cc1cnc(Nc2ccc(C[N+]3([O-])CCOCC3)cc2)nc1Nc1cccc(S(=O)(=O)NC(C)(C)C)c1` [N-tert-Butyl-3-{5-methyl-2-[4-(4-oxy-morpholin-4-ylmethyl)-phenylamino]-pyrimidin-4-ylamino}-benzenesulfonamide]: the IC50 turned out to be 48.6 nM.

For the compound `Cc1cnc(Nc2ccc(C(=O)N3CCOCC3)cc2)nc1Nc1cccc(S(=O)(=O)NC(C)(C)C)c1` [N-tert-Butyl-3-{5-methyl-2-[4-(morpholine-4-carbonyl)-phenylamino]-pyrimidin-4-ylamino}-benzenesulfonamide], the concentration for half-maximal inhibition (IC50) is 32.9 nM.

As for `Cc1cnc(Nc2ccc(C(=O)N3CCNCC3)cc2)nc1Nc1cccc(S(=O)(=O)NC(C)(C)C)c1` [N-tert-Butyl-3-{5-methyl-2-[4-(piperazine-1-carbonyl)-phenylamino]-pyrimidin-4-ylamino}-benzenesulfonamide], the IC50 came to 69 nM.

Regarding `Cc1cnc(Nc2ccc(C(=O)N3CCCC3)cc2)nc1Nc1cccc(S(=O)(=O)NC(C)(C)C)c1` [N-tert-Butyl-3-{5-methyl-2-[4-(pyrrolidine-1-carbonyl)-phenylamino]-pyrimidin-4-ylamino}-benzenesulfonamide], the IC50 came to 33.5 nM.

In the case of `Cc1ccc(Nc2nc(Nc3ccc(-n4ccnc4)cc3)ncc2C)cc1S(=O)(=O)NC(C)(C)C` [N-tert-Butyl-5-[2-(4-imidazol-1-yl-phenylamino)-5-methyl-pyrimidin-4-ylamino]-2-methyl-benzenesulfonamide], the IC50 was determined as 88.2 nM.

Take `Cc1cnc(Nc2ccc(CN3CCNCC3)cc2)nc1Nc1cccc(S(=O)(=O)NC(C)(C)C)c1` [N-tert-butyl-3-[(5-methyl-2-{[4-(piperazin-1-ylmethyl)phenyl]amino}pyrimidin-4-yl)amino]benzenesulfonamide]: the 50% inhibitory concentration (IC50) was determined as 4.6 nM.

Take `Cc1cnc(Nc2ccc(N3CCNCC3)c(C(F)(F)F)c2)nc1Nc1cccc(S(=O)(=O)NC(C)(C)C)c1` [N-tert-butyl-3-[(5-methyl-2-{[4-piperazin-1-yl-3-(trifluoromethyl)phenyl]amino}pyrimidin-4-yl)amino]benzenesulfonamide]: the IC50 stood at 22.5 nM.

Regarding `Cc1cnc(Nc2cccc(S(=O)(=O)N3CCN(C)CC3)c2)nc1Nc1cccc(S(=O)(=O)NC(C)(C)C)c1` [N-tert-butyl-3-{[5-methyl-2-({3-[(4-methylpiperazin-1-yl)sulfonyl]phenyl}amino)pyrimidin-4-yl]amino}benzenesulfonamide], the IC50 stood at 650 nM.

With `COc1cc(Nc2nc(Nc3ccc(OCCN4CCCC4)cc3)ncc2C#N)c(Cl)cc1Cl` [drawing 298, 4-(2,4-Dichloro-5-methoxy-phenylamino)-2-[4-(2-pyrrolidin-1-yl-ethoxy)-phenylamino]-pyrimidine-5-carbonitrile], the IC50 was found to be 6240 nM.

As for `COc1cc(Nc2nc(Nc3cccc(OCCN4CCCC4)c3)ncc2C#N)c(Cl)cc1Cl` [drawing 299, 4-(2,4-Dichloro-5-methoxy-phenylamino)-2-[3-(2-pyrrolidin-1-yl-ethoxy)-phenylamino]-pyrimidine-5-carbonitrile], the IC50 turned out to be 10500 nM.

`COc1cc(Nc2nc(Nc3cccc(OCCN4CCCC4)c3)ncc2C)c(Cl)cc1Cl` [drawing 300, N4-(2,4-Dichloro-5-methoxy-phenyl)-5-methyl-N2-[3-(2-pyrrolidin-1-yl-ethoxy)-phenyl]-pyrimidine-2,4-diamine]: the IC50 was determined as 2040 nM.

For the compound `COc1cccc(Nc2nc(Nc3ccc(OCCN4CCCC4)cc3)ncc2C)c1` [drawing 301, N2-(4-(2-(pyrrolidin-1-yl)ethoxy)phenyl)-N4-(3-methoxyphenyl)-5-methylpyrimidine-2,4-diamine Hydrochloride], the IC50 is 52.8 nM.
